From patent US5089516A, “1-phenyl-3,5-pyrazolidinedione hydroxystyrene compounds which have tyrosine kinase inhibiting activity” (Kanegafuchi Kagaku Kogyo Kabushiki Kaisha, priority 1987, dated 1992)
Values after ≈ are worked out from the molar mass of the structure shown.

What was measured:
[1] = target: T1, reverse transcriptase derived from Moloney-Murine Leukemia Virus (M-MLV) (Moloney murine leukemia virus, UniProt P03355); test: Inhibiting activity against reverse transcriptase derived from M-MLV; format: biochemical; details: read-out: Inhibition rate (reverse transcriptase derived from M-MLV); for inhibition at 1 µM: 1 μM in the reaction mixture; for inhibition at 10 µM: 10 μM in the reaction mixture
T1 construct: reverse transcriptase derived from Moloney-Murine Leukemia Virus; purchased Pharmacia K. K
Protocol: There was found the following point by using reverse transcriptase derived from Moloney-Murine Leukemia Virus (hereinafter referred to as "M-MLV").
The compound of the present invention was dissolved in DMSO to give a 100 mM solution thereof. Then, the solution was diluted with distilled water containing DMSO to give a solution of the test compound having a defined concentration. A mixed ratio of DMSO and distilled water was adjusted so that the concentration of DMSO at this time is 10% by volume and a final concentration of DMSO at the beginning of a reaction is 1% by volume.
The thus prepared solution of the test compound was mixed with a solution containing 50 mM of Tris--HCl buffer (pH 8.3), 8 mM of MgCl2, 30 mM of NaCl, 50 mM of dithiothreitol (made by Wako Pure Chemical Industries Ltd.), 0.2 mM of thymidine-5'-triphosphate (made by Pharmacia K. K.) and 6 U/ml of reverse transciptase derived from M-MLV (made by Pharmacia K. K.), and preincubated at 37° C. for 30 minutes. After there was added thereto 10 μg/ml of polyadenylic acid (made by PL Biochemicals Co., Ltd.), 0.01 U/ml of oligodeoxy thymidylic acid (made by Pharmacia K. K.) and 10 μCi/ml of [methyl-^3 H] thymidine-5'-triphosphate (made by Amersham Japan Co., Ltd., 47 Ci/mmol) to give a reaction mixture, the mixture was further incubated at 37° C. for 30 minutes, followed by cooling with ice to stop the reaction.
The radioactivity incorporated into deoxyribonucleic acids was measured according to the method of Linteril et al (Science 170, 447 to 449 (1967)). A defined volume of the reaction mixture was soaked into DE-81 filter paper (made by Whatman Ltd.), the filter paper was washed with 5% by weight of Na2 HPO4 solution for three times, and with distilled water and ethanol successively, and then dried. Radioactivity contained in the filter paper was measured by liquid scintillation counter to give the each radioactivity of the test solution groups.
On the other hand, the same procedure as above was carried out using DMSO-distilled water without the test compound instead of using the test solution, to give the value of radioactivity of a control group.
Reverse transcriptase derived from M-MLV inhibition rate (%) was calculated by the following equation. [formula]

[2] = test system: antigen-induced airway constriction; test: Inhibitory activity against antigen-induced airway constriction in actively sensitized guinea pigs; format: in vivo; details: Cavia porcellus, read-out: Inhibition rate (airway constriction)
Protocol: (3) Inhibitory activity against antigen-induced airway constriction in actively sensitized guinea pigs
That is, the sensitized guinea pigs (5 guinea pigs/group) were provided with artificial respiration by inserting a tracheal cannula under urethane anesthesia (1.5 g/kg body weight, intraperitoneal administration), and then, gallamine at 1 mg/kg body weight was injected intravenously to stop spontaneous respiration of the guinea pigs. Inhalation of 0.5% aqueous solution of ovalbumin was conducted using a nebulizer for 1 minute to increase antigen-induced airway constriction, at the same time, airway pressure was recorded through a transducer. Test compound was administered into jugular vein (i.v.) of the guinea pig 3 minutes before the antigen inhalation or administered orally (p.o.) 2 hours before the antigen inhalation. As a positive control compound, theophylline which was a drug for anti-asthma was used. The effect of the compound was estimated by calculating the maximum value of airway constriction (%) in comparison with the control group, according to the following equation. [formula]

[3] = test system: Staphylococcus aureus IFO 12732; test: Antibacterial activity (MIC) against Staphylococcus aureus IFO 12732; format: cell-based; details: IFO12732, 37° C., 18 to 20 hours
Protocol: (§1) The antibacterial activity against Gram-positive bacteria of the compound of the present invention was measured according to a standard method of Nippon Kagaku Ryoho Gakkai [Nippon Kagaku Ryoho Gakkaishi (Journal of the Chemical therapy of Japan), 29, 76(1981)].
(§2) As for gram-positive bacteria, after cultivation in Meuller Hinton broth medium (made by Difco Co., Ltd.), there was prepared a bacterial suspension for inoculation containing about 10^6 of the bacteria per 1 ml of the Meuller Hinton broth medium. On the other hand, the test compound was added to Mueller Hinton agar medium (made by Difco Co., Ltd.) so as to give agar plate medium containing test samples which are twofold serial diluted. Then, the above-mentioned bacterial suspension for inoculation was streaked to each agar medium for about 2 cm with a looped nichrome wire (inner diameter: about 1 mm).
(§3) After that the each agar plate medium was cultured at 37° C. for 18 to 20 hours, the growth of the test bacteria was determined.

[4] = test system: Bacillus subtilis IFO 3134; test: Antibacterial activity (MIC) against Bacillus subtilis IFO 3134; format: cell-based; details: IFO3134, 37° C., 18 to 20 hours
Protocol: as §1, §2, §3

[5] = test system: antigen-induced anaphylactic shock death; test: Protecting effect against antigen-induced anaphylactic shock death in actively sensitized guinea pigs; format: in vivo, male guinea pigs; details: Cavia porcellus, 1.5 h, oral, 30 minutes before antigen inhalation
Protocol: (2) Protecting effect against antigen-induced anaphylactic shock death in actively sensitized guinea pigs
Anaphylactic shock death caused by inhalation of antigen was observed according to John P. Devlin Pulmonary and Antiallergic Drugs, John Wiley & Sons, (1985)] employing actively sensitized guinea pigs.
Each 100 mg/kg of body weight ovalbumin dissolved in physiological saline was injected into gluteus and into peritoneal cavity of male guinea pigs weighing 250 to 350 g. Three days later, the animals were further injected intraperitoneally with ovalbumin (100 mg/kg body weight) to conduct booster. Those animals were employed for testing 3 to 4 weeks after the sensitization.
In each group, 4 or more actively sensitized guinea pigs were pretreated by subcutaneously injecting pyrilamine (1 mg/kg body weight) 30 minutes before antigen inhalation to suppress histamine-dependent response and propranolol (1 mg/kg body weight) to enhance the response induced by other than histamine 10 minutes before the antigen inhalation.
The animal was placed in a desiccator with a capacity of about […] and 0.5% aqueous solution of ovalbumin in the state of aerosol was inhaled with ultrasonic type nebulizer for five minutes. Anaphylactic shock death was observed and the animals survived for 90 minutes or more after antigen inhalation were estimated to be protected. All the animals of the control group died due to anaphylactic shock. The compounds of the present invention and therapeutic antiasthmatic agent (tranilast, theophylline) were administered orally 30 minutes before the antigen inhalation.

[6] = iv, 3 minutes before antigen inhalation

For `O=C1NC(=S)SC1=Cc1cc(O)c(O)c(CSc2ccccc2)c1` [Compound 7], the inhibition at 1 µM [1] was 98% and the inhibition in vivo at 1 mg/kg [2, 6] was 25%.
`O=C1NC(=S)SC1=Cc1cc(CSc2ccccc2)c(O)c(OCc2ccccc2)c1` [Compound 8] gave an inhibition at 1 µM [1] of 98% and an inhibition in vivo at 1 mg/kg [2, 6] of 43%.
Work on `O=C1NC(=S)SC1=Cc1cc(Cc2ccccc2)c(O)c(Cc2ccccc2)c1` [Compound 2] yielded an inhibition at 1 µM [1] of 95%, an MIC [3] of 12 µg/mL (≈ 28.7 µM) and an MIC [4] of at most 6 µg/mL.
Work on `O=C1N=C(NCc2ccccc2)SC1=Cc1cc(Cc2ccccc2)c(O)c(Cc2ccccc2)c1` [Compound 26] yielded an inhibition at 10 µM [1] of 76% and an inhibition in vivo at 1 mg/kg [2, 6] of 68%.
Molecule `CC(C)c1cc(C=C2SC(NCc3ccc(N)cc3)=NC2=O)cc(C(C)C)c1O` [Compound 42] has an inhibition at 10 µM [1] of 50% and an inhibition in vivo at 5 mg/kg ([2]; iv, 5 mg/kg, 3 minutes before antigen inhalation) of 33%.
Molecule `CC(C)c1cc(C=C2SC(NCc3ccccc3)=NC2=O)cc(C(C)C)c1O` [Compound 33] has an inhibition in vivo at 2 mg/kg ([2]; iv, 2 mg/kg, 3 minutes before antigen inhalation) of 26%.
`CCCCOc1cc(C=C2SC(=S)NC2=O)cc(CSc2ccccc2)c1O` [Compound 9] was tested, and the inhibition at 1 µM [1] was 73% and the inhibition in vivo at 1 mg/kg [2, 6] was 20%.
With `O=C1NN(c2ccccc2)C(=O)C1=Cc1cc(O)c(O)c(Cc2ccccc2)c1` [Compound 24] the inhibition at 1 µM [1] was 91%.
`CCCCOc1cc(C=C2SC(=S)NC2=O)cc(Cc2ccccc2)c1O` [Compound 10] gave an inhibition at 10 µM [1] of 61%.
`CC(C)c1cc(C=C2SC(NCc3ccc(Cl)c(Cl)c3)=NC2=O)cc(C(C)C)c1O` [Compound 37] gave a responders at 100 mg/kg [5] of 25% and an inhibition in vivo at 1 mg/kg [2, 6] of 21%.
Work on `CC(C)c1cc(C=C2SC(NCc3ccc(F)cc3)=NC2=O)cc(C(C)C)c1O` [Compound 35] yielded a responders at 10 mg/kg [5] of 50%.
For `CC(C)c1cc(C=C2SC(NCc3ccc(S(N)(=O)=O)cc3)=NC2=O)cc(C(C)C)c1O` [Compound 41], the MIC [3] was 50 µg/mL (≈ 106 µM), the MIC [4] was 25 µg/mL (≈ 52.8 µM) and the responders at 10 mg/kg [5] was 25%.
Work on `O=C1Nc2ccccc2C1=Cc1cc(O)c(O)c(CSc2ccccc2)c1` [Compound 11] yielded an inhibition at 1 µM [1] of 94%, an MIC [3] of 25 µg/mL (≈ 66.6 µM) and an MIC [4] of at most 6 µg/mL. For the same molecule, the inhibition in vivo at 1 mg/kg [2, 6] was 52% and the inhibition in vivo at 30 mg/kg ([2]; po, 30 mg/kg, 2 hours before antigen inhalation) was 26%.
`O=C1N=C(NCc2cccs2)SC1=Cc1cc(CSc2ccccc2)c(O)c(OCc2ccccc2)c1` [Compound 31] showed an inhibition at 10 µM [1] of 61%.
`O=C1NN(c2ccccc2)C(=O)C1=Cc1cc(Cc2ccccc2)c(O)c(Cc2ccccc2)c1` [Compound 20] showed an inhibition at 10 µM [1] of 97%, an MIC [3] of 100 µg/mL (≈ 217 µM) and an MIC [4] of 50 µg/mL (≈ 109 µM).
In the case of `Cc1ccc(CNC2=NC(=O)C(=Cc3cc(C(C)C)c(O)c(C(C)C)c3)S2)cc1` [Compound 39], the responders at 100 mg/kg [5] is reported as 25% and the inhibition in vivo at 1 mg/kg [2, 6] is reported as 59%.
